For assay [1], the system named is human peripheral blood lymphocytes. The experiment in a line: Mitogenesis assay PMA: inhibition of proliferation of human PBLs. It counts as cell-based. To be noted: Lymphocyte, PMA (10 ng/ml) plus ionomycin (250 ng/ml), 48 h incubation. As to the method: (§1) PMA and OKT3mitogens used to stimulate proliferation of human peripheral
(§2) blood lymphocytes (PBC). Compounds are evaluated on their ability to
(§3) Fresh peripheral blood lymphocytes (PBLs) from LeukoPak cells or whole blood from random normal blood donors (tested HIV-negative and hepatitis negative) are isolated and separated by density centrifugation over Histopaque 1077 (Sigma Chemical Co., St. Louis, Mo.). The murine CTLL cytotoxic T cell line and the human Jurkat T cell line are from ATCC (CTLL-2 ATCC TIB214, JURKAT CLONE E6-1 ATCC TIBl52). The human allogeneic B cell lines used for activation of the fresh PBLs are EBV-transformed lymphocytes from normal healthy adult donors with two completely different HLAhaplotypes. All cell lines were routinely tested for the presence of Mycolasma contamination using the GibcoMycotect test kit and are Mycolasma-free. Culture medium consksts of RPMI 1640 (Gibco, Grand Island, N.Y.) containing penicillin (50 U/ml) and streptomycin (50 μg/ml), L-glutamine 2 mM, 2 mercaptoethanol (5×10^-5), 10% heat-inactivated FCS and 10 mM HEPES.
(§4) All chemical stocks were dissolved in DMSO.
(§5) Mitogenesis Assays ("PMA" and "OKT3")
(§6) After 48 h incubation (37° C., 5% CO2), cells were pulsed with 1 μCi of ^3 H-thymidine, harvested 24 h later with a Tom Tek cell harvester, and counted in LKB β-scintillation counter.

Assay [2] has as its system PBLs stimulated with LB human viral transformed B lymphoblastoid cells. The experiment in a line: MLR bioassay LB: inhibition of proliferation in mixed lymphocyte reaction. It is filed as cell-based. The following applies: Lymphoblastoid cell, pulsed on day 6, harvested 24 h later. As to the method: (§7) LB and JVMhuman viraltransformed B lymphoblastoid cell lines stimulated t
(§8) proliferate in a mixed lymphocyte reaction (MLR). The compounds are
(§9) evaluated on their ability to inhibit this proliferation.
as §3, §4
(§10) MLR Bioassays ("LB" and "JVM")
(§11) Antigen activated proliferation of PBLs in a primary mixed lymphocyte reaction was assessed in the presence or absence of different concentrations of tested compounds and control drugs. 5×10^4 fresh PBLs were stimulated with 5×10^3 of Mitomycin C treated-allogeneic EBV-transformed β-lymphoglastoid cells, IB and JVM, in a final volume of 200 μl per well in 96-well round-bottomed plates (Mishell, B. B. and S. M. Shiigi, Selected Methods in Cellular Immunology W. H. Freeman and Co., San Francisco, Calif. (1980); Nelson, P. A. et al., Transplantation 50:286 (1990)). Cultures were pulsed on day 6, harvested 24 h later and counted as in previous section.

The target in assay [3] is T1, FK-506 binding protein (FKBP) (Homo sapiens, UniProt P62942). Briefly: Competitive binding to FKBP against [3H]dihydro-FK-506 (apparent Kd). To be noted: competition with [3H]dihydro-FK-506.
Assay [4] concerns PBLs stimulated with JVM human viral transformed B lymphoblastoid cells. Briefly: MLR bioassay JVM: inhibition of proliferation in mixed lymphocyte reaction. The following applies: Lymphoblastoid cell, pulsed on day 6, harvested 24 h later. It is filed as cell-based. The procedure: as §7, §8, §9, §3, §4, §10, §11
The test system of assay [5] is human peripheral blood lymphocytes. Briefly: Mitogenesis assay OKT3: inhibition of proliferation of human PBLs. It is filed as cell-based. The following applies: Lymphocyte, OKT3 (10^-4 dilution final), 48 h incubation. The procedure: as §1, §2, §3, §4, §5, §6
The target in assay [6] is T1, FK-506 binding protein (FKBP). Briefly: Inhibition of PPIase (rotamase) enzyme activity of FKBP (apparent Ki). It is filed as biochemical. To be noted: substrate N-succinylAla-Ala-Pro-Phe-p-nitroanilide, chymotrypsin-coupled. An excerpt:
The inhibition of the PPIase (rotamase) enzyme activity of the FKBP (apparent "Ki" values) can also be measured according to the methods described by either Harding, M. W. et al., Nature 341:758-760 (1989) or Siekierka, J. J. et al., Nature 341:755-757 (1989). The cis-trans isomerization of the proline-alanine peptide bond in a model substrate, N-succinylAla-Ala-Pro-Phe-p-nitroanilide, is monitored spectrophotometrically in a coupled assay with chymotrypsin, which releases 4-nitroanilide from the trans form of the substrate. Fischer, G. et al., Nature 337:476-478 (1989). The inhibitory effect of the addition of different concentrations of inhibitor on the extent of the reaction is determined, and analysis of the change in first order rate constant as a function of inhibitor concentration yields an estimate of the apparent Ki value.

Structures are written as SMILES.

T1 sequence (P62942 whole entry): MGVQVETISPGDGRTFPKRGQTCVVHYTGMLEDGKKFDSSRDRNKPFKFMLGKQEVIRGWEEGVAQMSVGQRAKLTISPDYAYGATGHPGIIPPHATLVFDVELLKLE

In general, IC50 refers to the concentration at which inhibition is half-maximal. Regarding `O=C(C(=O)N1CCCC[C@H]1C(=O)OCc1ccccc1)c1ccccc1` [Compound 3, (S)-Benzyl N-(phenylglyoxyl)pipecolate], the 50% inhibitory concentration (IC50) is 7.6 µM in assay [1], more than 10 µM in assay [2], more than 10 µM in assay [4] and 4.6 µM in assay [5]. Also, the Kd in assay [3] is more than 2 µM.
In the case of `COc1ccccc1C(=O)C(=O)N1CCCC[C@H]1C(=O)OCc1ccccc1` [Compound 8], the Ki in assay [6] is 17 µM. For the same compound, in assay [3], the Kd is more than 75 µM.
Regarding `COc1cccc(C(=O)C(=O)N2CCCC[C@H]2C(=O)OCc2ccccc2)c1` [Compound 9], the IC50 in assay [1] is more than 10 µM; in assay [2] it was more than 10 µM; in assay [4], more than 10 µM; in assay [5], 6.5 µM. Moreover, the Ki in assay [6] stood at 0.3 µM. Further, the Kd in assay [3] is more than 1.3 µM.
For the compound `COc1ccc(C(=O)C(=O)N2CCCC[C@H]2C(=O)OCc2ccccc2)cc1` [Compound 10], the Ki in assay [6] came to 5 µM. The Kd in assay [3] stood at 5 µM.
For `COc1cc(OC)cc(C(=O)C(=O)N2CCCC[C@H]2C(=O)OCc2ccccc2)c1` [Compound 11], the Ki in assay [6] was determined as 2 µM. For the same compound, the Kd in assay [3] was 0.6 µM.
Take `COc1cccc(OC)c1C(=O)C(=O)N1CCCC[C@H]1C(=O)OCc1ccccc1` [Compound 12]: the Ki in assay [6] came out at 50 µM. For the same compound, the Kd in assay [3] was 25 µM.
For `O=C(C(=O)N1CCCC[C@H]1C(=O)OCc1ccccc1)c1ccc(F)cc1` [Compound 14] the same measures were 4 µM and 10 µM.
In the same order, the values of `O=C(C(=O)N1CCCC[C@H]1C(=O)OCc1ccccc1)c1cccc([N+](=O)[O-])c1` [Compound 15] are 160 µM and more than 75 µM.
On to `O=C(C(=O)N1CCCC[C@H]1C(=O)OCc1ccccc1)c1ccccn1` [Compound 17], for which the Ki in assay [6] came out at 130 µM. For the same compound, the Kd in assay [3] was more than 1000 µM.
For `O=C(C(=O)N1CCCC[C@H]1C(=O)OCc1ccccc1)c1cccc[n+]1[O-]` [Compound 18] the same measures were more than 500 µM and 10 µM.
Turning to `CC(C)(C)OC(=O)[C@@H]1CCCN1C(=O)C(=O)c1ccco1` [Compound 19], the Ki in assay [6] turned out to be 200 µM. Further, the Kd in assay [3] was more than 500 µM.
For `O=C(C(=O)N1CCCC[C@H]1C(=O)OCc1ccccc1)c1c[nH]c2ccccc12` [Compound 21] the same measures were 25 µM and 20 µM.
For `O=C(Cc1ccccc1[N+](=O)[O-])C(=O)N1CCC[C@H]1C(=O)OCc1ccccc1` [Compound 27] the same measures were 26 µM and more than 25 µM.
For `COC(=O)C(=O)N1CCC[C@H]1C(=O)OC(C)(C)C` [Compound 29] the same measures were 600 µM and more than 500 µM.
Turning to `C=CCOC(=O)[C@@H]1CCCCN1C(=O)C(=O)OC` [Compound 30], the Ki in assay [6] turned out to be 190 µM. Moreover, the Kd in assay [3] is more than 25 µM.
Consider `COC(=O)C(=O)N1CCCC[C@H]1C(=O)OCCC1CCCCC1` [Compound 32], for which, in assay [6], the Ki worked out at 45 µM. Also, the Kd in assay [3] was more than 40 µM.
Consider `COC(=O)C(=O)N1CCCC[C@H]1C(=O)OC/C(C)=C/c1ccc(OC)cc1` [Compound 36], for which the Ki in assay [6] came to 40 µM. The Kd in assay [3] was more than 30 µM.
In the case of `COC(=O)C(=O)N1CCCC[C@H]1C(=O)OC/C(C)=C/[C@H]1CC[C@@H](O)CC1` [Compound 39], in assay [6], the Ki is 70 µM. In addition, in assay [3], the Kd was more than 20 µM.
For `CCC(=O)C(=O)N1CCC[C@H]1C(=O)OCc1ccccc1` [Compound 41] the same measures were 400 µM and more than 300 µM.
Turning to `COc1cccc(C(=O)C(=O)N2CCC[C@H]2C(=O)OCc2ccccc2)c1` [Compound 42], the Ki in assay [6] was 5 µM. In addition, the Kd in assay [3] is 80 µM.
For `O=C(OCc1ccccc1)[C@@H]1CCCCN1C(=O)C(=O)C1(O)CCCCO1` (stereo partly shown) [Compound 50] the same measures were 12 µM and 0.35 µM.
For `C[C@@H](OC(=O)[C@@H]1CCCCN1C(=O)C(=O)c1ccccc1)c1ccccc1` [Compound 51] the same measures were 1.5 µM and 1 µM.
For `CC(C)(C)/C=C/C(=O)C(=O)N1CCCC[C@H]1C(=O)OCc1ccccc1` [Compound 54] the same measures were 9 µM and 3 µM.
Regarding `COc1cc(C(=O)C(=O)N2CCCC[C@H]2C(=O)OCCCCc2ccccc2)cc(OC)c1OC` [Compound 63], the half-inhibitory concentration (IC50) in assay [1] is 6 µM; in assay [2], 10 µM; in assay [4], 8.5 µM; in assay [5], 3.1 µM. Besides, the Kd in assay [3] is 0.1 µM.
In the same order, the values of `COc1ccc(CCCCOC(=O)[C@@H]2CCCCN2C(=O)C(=O)c2cc(OC)c(OC)c(OC)c2)cc1` [Compound 85] are 4.5 µM, 7 µM, 10 µM, 4.5 µM and 0.049 µM.
As for `O=C(OCc1ccccc1)[C@@H]1CCCN1C(=O)/C=C/c1ccc2c(c1)OCO2` [Compound 109, (S)-3-(3,4-Methylenedioxyphenyl)-prop-2-enoylproline benzyl ester], the Ki in assay [6] was found to be 3 µM. Moreover, the Kd in assay [3] is more than 15 µM.
For `O=C(OCc1ccccc1)[C@@H]1CCCCN1C(=O)/C=C/c1ccc2c(c1)OCO2` [Compound 110] the same measures were 3 µM and more than 4 µM.
For `COc1ccc(/C=C/C(=O)N2CCC[C@H]2C(=O)OCc2ccccc2)cc1` [Compound 111] the same measures were 6 µM and more than 30 µM.
`COc1ccc(/C=C/C(=O)N2CCCC[C@H]2C(=O)OCc2ccccc2)cc1` [Compound 112, (S)-Benzyl N-(4-Methoxycinnamoyl)pipecolate]: the Ki in assay [6] was 4 µM. In addition, the Kd in assay [3] was more than 8 µM.
On to `COc1cc(/C=C/C(=O)N2CCC[C@H]2C(=O)OCc2ccccc2)cc(OC)c1OC` [Compound 115], for which the Ki in assay [6] came to 450 µM. Further, the Kd in assay [3] was more than 25 µM.
For `CN(C)c1ccc(/C=C/C(=O)N2CCCC[C@H]2C(=O)OCc2ccccc2)cc1` [Compound 116] the same measures were 20 µM and more than 5 µM.
For `O=C(OCc1ccccc1)[C@@H]1CCCCN1C(=O)/C=C/c1ccc([N+](=O)[O-])cc1` [Compound 117] the same measures were 14 µM and more than 5 µM.
For `O=C(OCc1ccccc1)[C@@H]1CCCCN1C(=O)/C=C/c1c[nH]c2ccccc12` [Compound 120] the same measures were more than 60 µM and more than 8 µM.
For `COC(=O)C(=O)N(C)CC(=O)OCc1ccccc1` [Compound 124], the Ki in assay [6] was found to be 1000 µM. Besides, in assay [3], the Kd was more than 200 µM.
For the compound `COC(=O)C(=O)N(C)[C@@H](C)C(=O)OCc1ccccc1` [Compound 125], in assay [6], the Ki is 400 µM. The Kd in assay [3] is more than 200 µM.
With `COC(=O)C(=O)N(C)[C@H](C(=O)OCc1ccccc1)C(C)C` [Compound 126], the Ki in assay [6] is 170 µM. In assay [3], the Kd was more than 200 µM.
In the same order, the values of `CCN(C(=O)C(=O)OC)[C@@H](C)C(=O)OC(C)(C)C` [Compound 128] are more than 400 µM and more than 500 µM.
In the case of `COc1ccc(/C=C/C(=O)N(C)[C@@H](C)C(=O)OCc2ccccc2)cc1` [Compound 129, (S)-N-3-(4-methoxyphenyl)-prop-2-enoyl-N-methylalanine benzyl ester], the Ki in assay [6] came out at 80 µM. The Kd in assay [3] is more than 150 µM.
In the case of `COc1ccc(/C=C/C(=O)N(C)[C@H](C(=O)OCc2ccccc2)C(C)C)cc1` [Compound 130], in assay [6], the Ki is 30 µM. Further, in assay [3], the Kd was more than 20 µM.
